Test results published in patent US9918956B2 (SICHUAN JIUZHANG BIOLOGICAL SCIENCE AND TECHNOLOGY CO., LTD, priority 2013, dated 2018).

What was measured:
[1] = pH-degradation reaction rate of chlorogenic acid in buffer solutions
[2] = adjuvant compatibility, high temperature (60° C.) test; assay type: physicochemical
stability of crude drugs = assay type: physicochemical; settings: light and heat
[3] = pH of chlorogenic acid solutions
[4] = adjuvant compatibility, high humidity (92.5% relative humidity) test; assay type: physicochemical; settings: 25° C.
[5] = adjuvant compatibility, bright light exposure test; assay type: physicochemical; settings: light 4500 lx ± 500 lx
From the text: Samples were taken and examined on 0, 5th, 10th days, respectively, and results were depicted in Table 7.

[6] = hygroscopicity of chlorogenic acid crude drug; assay type: physicochemical
[7] = from pH-degradation reaction rate curve

Concentration of chlorogenic acid ([1]; buffer pH 1.5, 0 h): 108.07 µg/mL | Concentration of chlorogenic acid ([1]; buffer pH 1.5, 3 h): 97.95 µg/mL | Concentration of chlorogenic acid ([1]; buffer pH 1.5, 7 h): 92.20 µg/mL | Concentration of chlorogenic acid ([1]; buffer pH 1.5, 11 h): 78.65 µg/mL | Concentration of chlorogenic acid ([1]; buffer pH 1.5, 17 h): 76.80 µg/mL | Concentration of chlorogenic acid ([1]; buffer pH 1.5, 22 h): 68.79 µg/mL | Concentration of chlorogenic acid ([1]; buffer pH 2.0, 0 h): 108.42 µg/mL | Concentration of chlorogenic acid ([1]; buffer pH 2.0, 3 h): 98.91 µg/mL | Concentration of chlorogenic acid ([1]; buffer pH 2.0, 7 h): 97.79 µg/mL | Concentration of chlorogenic acid ([1]; buffer pH 2.0, 11 h): 99.67 µg/mL | Concentration of chlorogenic acid ([1]; buffer pH 2.0, 17 h): 90.77 µg/mL | Concentration of chlorogenic acid ([1]; buffer pH 2.0, 22 h): 88.26 µg/mL | Concentration of chlorogenic acid ([1]; buffer pH 3.0, 0 h): 107.51 µg/mL | Concentration of chlorogenic acid ([1]; buffer pH 3.0, 3 h): 103.02 µg/mL | Concentration of chlorogenic acid ([1]; buffer pH 3.0, 7 h): 101.91 µg/mL | Concentration of chlorogenic acid ([1]; buffer pH 3.0, 11 h): 102.01 µg/mL | Concentration of chlorogenic acid ([1]; buffer pH 3.0, 17 h): 96.77 µg/mL | Concentration of chlorogenic acid ([1]; buffer pH 3.0, 22 h): 95.18 µg/mL | Concentration of chlorogenic acid ([1]; buffer pH 4.0, 0 h): 106.38 µg/mL | Concentration of chlorogenic acid ([1]; buffer pH 4.0, 7 h): 95.78 µg/mL | Concentration of chlorogenic acid ([1]; buffer pH 4.0, 11 h): 91.29 µg/mL | Concentration of chlorogenic acid ([1]; buffer pH 4.0, 17 h): 85.09 µg/mL | Concentration of chlorogenic acid ([1]; buffer pH 4.0, 22 h): 80.21 µg/mL | Concentration of chlorogenic acid ([1]; buffer pH 5.1, 0 h): 105.96 µg/mL | Concentration of chlorogenic acid ([1]; buffer pH 5.1, 3 h): 97.99 µg/mL | Concentration of chlorogenic acid ([1]; buffer pH 5.1, 7 h): 88.87 µg/mL | Concentration of chlorogenic acid ([1]; buffer pH 5.1, 11 h): 81.70 µg/mL | Concentration of chlorogenic acid ([1]; buffer pH 5.1, 17 h): 66.59 µg/mL | Concentration of chlorogenic acid ([1]; buffer pH 5.1, 22 h): 55.83 µg/mL | Concentration of chlorogenic acid ([1]; buffer pH 6.2, 0 h): 105.67 µg/mL | Concentration of chlorogenic acid ([1]; buffer pH 6.2, 3 h): 67.91 µg/mL | Concentration of chlorogenic acid ([1]; buffer pH 6.2, 7 h): 43.91 µg/mL | Concentration of chlorogenic acid ([1]; buffer pH 6.2, 11 h): 33.46 µg/mL | Concentration of chlorogenic acid ([1]; buffer pH 6.2, 17 h): 22.91 µg/mL | Concentration of chlorogenic acid ([1]; buffer pH 6.2, 22 h): 18.48 µg/mL | pH value of most stable solution [1, 7]: 3 | pH values at which aqueous solutions were more stable [1, 7]: 2-4 | Content ([2]; day 0): 99.51% | Description ([2]; day 0): Off-white | Loss on drying ([2]; day 0): 2.31% | Related substances Others 2 ([2]; day 0): 0.154% | Related substances Others 3 ([2]; day 0): 0.211% | Related substances Others 4 ([2]; day 0): 0.035% | Related substances Others Total ([2]; day 0): 0.504% | Content ([2]; day 5): 99.36% | Description ([2]; day 5): Dark brown | Loss on drying ([2]; day 5): 2.25% | Related substances Others 2 ([2]; day 5): 0.160% | Related substances Others 3 ([2]; day 5): 0.294% | Related substances Others 4 ([2]; day 5): 0.039% | Related substances Others Total ([2]; day 5): 0.627% | Content ([2]; day 10): 99.31% | Description ([2]; day 10): Dark brown | Loss on drying ([2]; day 10): 2.13% | Related substances Others 1 ([2]; day 10): 0.143% | Related substances Others 2 ([2]; day 10): 0.175% | Related substances Others 3 ([2]; day 10): 0.306% | Related substances Others 4 ([2]; day 10): 0.047% | Related substances Others Total ([2]; day 10): 0.670% | stability of crude drug (stability of crude drugs): sensitive to light and heat | pH value of solution ([3]; […] solution before freeze-drying): about 3.0 | pH value of solution ([3]; concentration 0.03%): about 3.5 | Content ([4]; day 0): 99.51% | Description ([4]; day 0): Off white | Loss on drying ([4]; day 0): 2.31% | Related substances Others 2 ([4]; day 0): 0.154% | Related substances Others 3 ([4]; day 0): 0.211% | Related substances Others 4 ([4]; day 0): 0.035% | Related substances Others Total ([4]; day 0): 0.504% | Content ([4]; day 5): 99.47% | Description ([4]; day 5): Pale yellow | Loss on drying ([4]; day 5): 4.22% | Related substances Others 2 ([4]; day 5): 0.157% | Related substances Others 3 ([4]; day 5): 0.203% | Related substances Others 4 ([4]; day 5): 0.036% | Related substances Others Total ([4]; day 5): 0.518% | Content ([4]; day 10): 99.43% | Description ([4]; day 10): Pale yellow | Loss on drying ([4]; day 10): 4.75% | Related substances Others 2 ([4]; day 10): 0.174% | Related substances Others 3 ([4]; day 10): 0.221% | Related substances Others 4 ([4]; day 10): 0.041% | Related substances Others Total ([4]; day 10): 0.570% | Content ([5]; day 0): 99.51% | Description ([5]; day 0): Off white | Loss on drying ([5]; day 0): 2.31% | Related substances Others 2 ([5]; day 0): 0.154% | Related substances Others 3 ([5]; day 0): 0.211% | Related substances Others 4 ([5]; day 0): 0.035% | Related substances Others Total ([5]; day 0): 0.504% | Content ([5]; day 5): 99.15% | Description ([5]; day 5): Dark brown | Loss on drying ([5]; day 5): 2.38% | Related substances Others 2 ([5]; day 5): 0.483% | Related substances Others 3 ([5]; day 5): 0.223% | Related substances Others 4 ([5]; day 5): 0.037% | Related substances Others Total ([5]; day 5): 0.871% | Content ([5]; day 10): 99.07% | Description ([5]; day 10): Dark brown | Loss on drying ([5]; day 10): 2.54% | Related substances Others 2 ([5]; day 10): 0.498% | Related substances Others 4 ([5]; day 10): 0.044% | hygroscopicity [6]: had hygroscopicity
SMILES: O=C(/C=C/c1ccc(O)c(O)c1)O[C@@H]1C[C@](O)(C(=O)O)C[C@@H](O)[C@H]1O [chlorogenic acid]
lgk ([1]; pH 1.5): −1.7036 | constants of reaction rate k ([1]; pH 1.5, first order degradation): 0.0198 | lgk ([1]; pH 2.0): −2.0947 | constants of reaction rate k ([1]; pH 2.0, first order degradation): 0.0080 | lgk ([1]; pH 3.0): −2.2931 | constants of reaction rate k ([1]; pH 3.0, first order degradation): 0.0051 | lgk ([1]; pH 4.0): −1.9027 | lgk ([1]; pH 5.1): −1.5412 | constants of reaction rate k ([1]; pH 5.1, first order degradation): 0.0288 | lgk ([1]; pH 6.2): −1.1144 | constants of reaction rate k ([1]; pH 6.2, first order degradation): 0.0768
